{
  "source": "patent US6395745B1",
  "about": "“Alkaloid halide salts of swainsonine and methods of use” (priority 1997, dated 2002)",
  "molecular_target": "T1, Golgi mannosidase II in MDAY-D2 tumor cells (Mus musculus, UniProt P27046)",
  "T1 construct": "endogenous in cells; host or cells: MDAY-D2 tumor cells",
  "T1 sequence (P27046 1-1150)": "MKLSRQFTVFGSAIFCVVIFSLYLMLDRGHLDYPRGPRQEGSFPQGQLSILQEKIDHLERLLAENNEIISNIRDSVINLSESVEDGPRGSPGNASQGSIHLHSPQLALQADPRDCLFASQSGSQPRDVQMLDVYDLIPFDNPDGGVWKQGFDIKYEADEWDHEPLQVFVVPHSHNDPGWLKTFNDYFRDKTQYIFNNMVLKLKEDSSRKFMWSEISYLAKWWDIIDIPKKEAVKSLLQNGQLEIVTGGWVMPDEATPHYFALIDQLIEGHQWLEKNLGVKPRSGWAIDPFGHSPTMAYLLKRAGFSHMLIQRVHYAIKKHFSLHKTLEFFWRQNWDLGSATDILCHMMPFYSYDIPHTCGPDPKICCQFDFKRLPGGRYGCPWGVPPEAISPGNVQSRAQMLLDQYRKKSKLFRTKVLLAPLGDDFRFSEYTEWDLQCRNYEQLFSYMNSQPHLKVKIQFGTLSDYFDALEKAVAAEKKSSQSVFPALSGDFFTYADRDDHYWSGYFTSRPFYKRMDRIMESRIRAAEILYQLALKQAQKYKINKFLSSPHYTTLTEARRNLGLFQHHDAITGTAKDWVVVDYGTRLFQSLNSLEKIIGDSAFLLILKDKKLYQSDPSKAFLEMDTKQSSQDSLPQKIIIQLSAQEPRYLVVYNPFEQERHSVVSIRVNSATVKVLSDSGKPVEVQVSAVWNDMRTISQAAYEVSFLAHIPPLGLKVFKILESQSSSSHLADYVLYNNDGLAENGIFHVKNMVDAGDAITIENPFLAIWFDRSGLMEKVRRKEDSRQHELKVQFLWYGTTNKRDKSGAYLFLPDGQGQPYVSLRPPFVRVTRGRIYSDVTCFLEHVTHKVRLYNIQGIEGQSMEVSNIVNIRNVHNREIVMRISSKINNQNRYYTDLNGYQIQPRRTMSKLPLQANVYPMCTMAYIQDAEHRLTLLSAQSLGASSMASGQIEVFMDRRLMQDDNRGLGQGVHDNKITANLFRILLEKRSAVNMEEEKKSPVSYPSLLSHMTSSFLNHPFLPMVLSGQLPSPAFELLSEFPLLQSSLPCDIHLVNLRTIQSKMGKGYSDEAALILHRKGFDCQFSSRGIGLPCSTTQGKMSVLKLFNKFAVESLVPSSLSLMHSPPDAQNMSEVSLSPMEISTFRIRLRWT",
  "test": "L-PHA cell assay for inhibition of mannosidase II in cells (alkaline phosphatase readout)",
  "assay_type": "cell-based, murine",
  "method": "The test compound swainsonine hydrochloride is prepared by 0.5 serial dilution of a 40 μM stock in 50 μl of 5% fetal bovine serum (FBS) in minimum essential medium (MEM). To 50 μl of diluted test samples in 96 well plates, 10,000 MDAY-D2 tumor cells in 50 μl of 5% FBS in MEM is added to each well. The samples are incubated at 37° C. overnight in a 5% CO2 incubator. Test wells are prepared in duplicate for the addition of 25 μl/well of either 5% FBS in MEM or 5% FBS in MEM containing 100 μg/ml of L-PHA. Samples are again incubated at 37° C. overnight in a 5% CO2 incubator. The viability and/or proliferation of the cells in each well is measured using phenazine methylsulfate (PMS) and (3(4,5-dimethylthiazol-2-yl-5-(3-carboxymethoxyphenyl)-2,4,sulfophenyl)-2H tetrazolium salt (“MTS”) as described in the instructions of the Promega CellTiter 96 AQ kit. The absorption is read at 490 nm. The loss of L-PHA toxicity is directly related to entry of the drug into the cells and to inhibition of Golgi mannosidase II, and loss of L-PHA binding carbohydrate structures on the cells surface.\nCells. […]\nAlkaline Phosphatase Assay. […] After 15-30 min of colour development, absorbance of the chromogenic product para-nitrophenol was measured at […] using a multiwell scanning photometer (Thermomax Multiplate Reader, Molecular Devices). […]",
  "data": [
    {"smiles": "Cl.O[C@H]1[C@H]2[C@H](O)CCCN2C[C@@H]1O", "note": "[swainsonine hydrochloride, (−)-(1S,2S,8R,8aR)-1,2,8-trihydroxyoctahydro-indolizidine hydrochloride salt]", "values": [
      {"measurement": "IC50", "value": "57 ± 10", "unit": "nM"}
    ]}
  ]
}
